From article PMC10069031 (European Journal of Medical Research, 2023)
Like-named read-outs stand apart in the source and are kept apart here.

Tests used:
murine CSF1R = molecular target: T1, murine CSF1R (Mus musculus, UniProt P09581); assay: CSF1R inhibition in RAW264.7 cells (western blot of pCSF1R); format: cell-based; details: RAW264.7 cells; for IC50: drug 1 h, CSF1 100 ng/mL 2 min, mean ± SD (replicates), M-4, M-5 from pCSF1R bands without relating to total CSF1R; for signal of total CSF1R: western blot
T1 construct: Western blot analysis of total lysates (40 µg/lane) from mouse RAW264.7 cells treated as indicated; endogenous in cells; host or cells: RAW264.7 (murine macrophages)
T1 sequence (P09581 20-977): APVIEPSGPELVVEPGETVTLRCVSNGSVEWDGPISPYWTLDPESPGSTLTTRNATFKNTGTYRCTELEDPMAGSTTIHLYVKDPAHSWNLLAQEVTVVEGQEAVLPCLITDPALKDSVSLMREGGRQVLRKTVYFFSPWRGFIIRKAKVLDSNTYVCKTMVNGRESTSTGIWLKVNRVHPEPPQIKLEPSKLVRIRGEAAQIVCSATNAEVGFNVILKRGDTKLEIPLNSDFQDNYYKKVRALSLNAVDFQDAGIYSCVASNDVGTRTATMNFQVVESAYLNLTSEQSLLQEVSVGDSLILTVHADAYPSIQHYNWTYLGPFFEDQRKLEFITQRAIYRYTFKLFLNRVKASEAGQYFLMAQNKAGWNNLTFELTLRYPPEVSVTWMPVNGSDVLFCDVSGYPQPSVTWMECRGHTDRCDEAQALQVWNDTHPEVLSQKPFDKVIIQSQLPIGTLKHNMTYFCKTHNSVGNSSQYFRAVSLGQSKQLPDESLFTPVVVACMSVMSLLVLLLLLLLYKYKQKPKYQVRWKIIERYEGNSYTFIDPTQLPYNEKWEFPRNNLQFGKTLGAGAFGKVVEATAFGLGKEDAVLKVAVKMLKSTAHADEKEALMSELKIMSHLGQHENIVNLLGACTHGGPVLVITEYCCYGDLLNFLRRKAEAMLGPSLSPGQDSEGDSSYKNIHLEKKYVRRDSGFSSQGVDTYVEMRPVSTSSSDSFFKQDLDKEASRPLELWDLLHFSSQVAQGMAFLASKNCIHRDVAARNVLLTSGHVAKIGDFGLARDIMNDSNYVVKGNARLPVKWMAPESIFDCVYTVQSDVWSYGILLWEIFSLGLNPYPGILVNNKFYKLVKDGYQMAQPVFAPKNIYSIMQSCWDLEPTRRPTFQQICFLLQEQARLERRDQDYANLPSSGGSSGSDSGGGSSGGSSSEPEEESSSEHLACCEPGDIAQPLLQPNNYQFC
Protocol: (§1) RAW264.7 cells (10^6) were seeded into cell culture dishes 6 cm in diameter and incubated in 4 mL RPMI/10% fetal bovine serum (Biochrom) for 24 h at 37 °C in a humidified 5% CO2 atmosphere. Cells were washed once with phosphate-buffered saline (PBS) and starved in 3 mL RPMI/0.1% bovine serum albumin for another 24 h. Cells were then treated for 1 h at 37 °C with drugs at the indicated final concentrations, with 0.5% DMSO as vehicle control, or left untreated, and finally stimulated for 2 min at 37 °C with 100 ng/mL recombinant mouse CSF1 (R&D Systems) by adding 1 mL prewarmed starving medium containing 400 ng/mL CSF1. Dishes were placed on ice and cells were immediately washed with ice-cold PBS and lysed with 50 µL lysis buffer (50 mM HEPES pH 7.5, 150 mM NaCl, 1.5 mM MgCl2, 10% glycerol, 1% Triton X-100, 0.5% desoxycholate, 0.2% sodium dodecyl sulfate, 1 mM ethylene glycol-bis[β-aminoethyl ether]-N,N,N′,N′-tetraacetic acid, 100 mM NaF, 10 mM Na4P2O7, 1 mM Na3VO4, 1% Phosphatase Inhibitor Cocktail 3 [Sigma-Aldrich], 1 mM phenylmethyl sulfonyl fluoride, Complete Protease Inhibitor Cocktail [Roche CustomBiotech; 1 tablet/10 mL], and 50 U/mL Benzonase [Sigma-Aldrich]). Lysed cells were scraped into Eppendorf tubes, incubated on ice for 20 min, and centrifuged at 4 °C for 10 min at 13,000 rpm; supernatants (lysates) were transferred into new tubes and stored at −80 °C.
(§2) Protein concentrations were determined using Pierce bicinchoninic acid assay (Thermo Fisher Scientific) and 40 µg/lane of total lysate was separated by SDS-PAGE on 4–12% Criterion XT Bis–Tris Gels (Bio-Rad) and subsequently transferred to polyvinylidene difluoride membranes using the Trans Blot Turbo Blotting System (Bio-Rad). For antigen detection, membranes were blocked with PBS Odyssey blocking reagent (LI-COR Biosciences) for 1 h at room temperature (RT). Primary antibodies were incubated overnight at 4 °C and the fluorescent secondary antibodies were incubated for 1 h at RT. After each antibody incubation, blots were washed with PBS with 0.05% Tween 20 (Carl Roth) for 15–30 min at RT. Fluorescent signals were quantitatively captured using the Odyssey DLx Infrared Imaging System (LI-COR Biosciences) and the half-maximal inhibitory concentration (IC50) values were calculated using GraphPad software (version 7 or newer).

ERK1/2 = assay: Inhibition of ERK activation in CSF1-stimulated RAW264.7 cells (western blot); format: cell-based, mouse; details: mean ± SD (replicates), read-out: Mean kinase IC50 values: P(T185,202;Y187,204) ERK1/2 [WB]
Protocol: as §1, §2

AKT = assay: Inhibition of AKT activation in CSF1-stimulated RAW264.7 cells (western blot); format: cell-based, mouse; details: mean ± SD (replicates), read-out: Mean kinase IC50 values: P(S473)AKT [WB]
Protocol: as §1, §2

VEGFR2 = VEGFR2 (Homo sapiens, UniProt P35968); assay: Competition binding assay, reference kinase
VEGFR2, sequence (P35968 20-1356, species assumed): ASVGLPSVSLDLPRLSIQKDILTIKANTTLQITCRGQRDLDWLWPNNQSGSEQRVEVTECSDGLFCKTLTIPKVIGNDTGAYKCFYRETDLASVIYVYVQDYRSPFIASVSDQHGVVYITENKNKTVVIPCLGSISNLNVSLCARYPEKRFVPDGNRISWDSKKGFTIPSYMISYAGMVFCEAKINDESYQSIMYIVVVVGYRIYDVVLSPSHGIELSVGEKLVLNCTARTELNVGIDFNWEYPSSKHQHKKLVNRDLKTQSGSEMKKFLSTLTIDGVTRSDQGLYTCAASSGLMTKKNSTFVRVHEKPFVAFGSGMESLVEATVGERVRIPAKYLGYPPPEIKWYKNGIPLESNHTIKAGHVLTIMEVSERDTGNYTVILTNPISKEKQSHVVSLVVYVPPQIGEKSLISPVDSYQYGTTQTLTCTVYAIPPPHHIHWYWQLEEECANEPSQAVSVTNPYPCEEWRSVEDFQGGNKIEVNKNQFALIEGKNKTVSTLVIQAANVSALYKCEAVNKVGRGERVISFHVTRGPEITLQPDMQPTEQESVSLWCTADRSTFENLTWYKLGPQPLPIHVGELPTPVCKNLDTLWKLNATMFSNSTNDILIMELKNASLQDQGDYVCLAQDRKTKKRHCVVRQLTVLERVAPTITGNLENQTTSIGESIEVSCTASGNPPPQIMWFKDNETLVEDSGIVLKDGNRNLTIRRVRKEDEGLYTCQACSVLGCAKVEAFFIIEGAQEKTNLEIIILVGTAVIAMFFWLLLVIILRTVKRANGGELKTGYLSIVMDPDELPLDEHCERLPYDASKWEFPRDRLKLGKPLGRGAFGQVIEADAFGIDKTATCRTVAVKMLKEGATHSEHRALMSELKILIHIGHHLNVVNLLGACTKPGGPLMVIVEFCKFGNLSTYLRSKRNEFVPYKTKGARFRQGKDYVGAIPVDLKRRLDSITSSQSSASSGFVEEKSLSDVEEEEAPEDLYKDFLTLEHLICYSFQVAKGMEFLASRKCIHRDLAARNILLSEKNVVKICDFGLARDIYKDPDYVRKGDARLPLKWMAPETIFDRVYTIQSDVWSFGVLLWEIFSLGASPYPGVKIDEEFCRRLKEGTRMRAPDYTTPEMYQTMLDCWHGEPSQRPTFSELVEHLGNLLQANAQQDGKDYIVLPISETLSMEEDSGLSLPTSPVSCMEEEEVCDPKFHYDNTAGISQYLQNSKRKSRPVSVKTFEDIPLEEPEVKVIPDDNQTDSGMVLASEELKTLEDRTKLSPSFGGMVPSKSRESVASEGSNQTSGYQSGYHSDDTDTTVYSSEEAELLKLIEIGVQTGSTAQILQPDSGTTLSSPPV

Binding to mouse plasma = format: in vitro ADME
[1] = read-out: Mean kinase IC50 values: P(Y559)CSF1R [WB]
[2] = read-out: Mean kinase IC50 values: P(Y721)CSF1R [WB]

Compound: NC(=O)c1cc(Oc2ccc(NC(=O)Nc3ccc(Cl)c(C(F)(F)F)c3)c(F)c2)cc[n+]1[O-] [M-5]
- IC50 (murine CSF1R; [1]): 19 ± 15 nM
- IC50 (murine CSF1R; [2]): 18 ± 14 nM
- signal of total CSF1R (murine CSF1R): destabilized
- IC50 (ERK1/2): 276 ± 197 nM
- IC50 (AKT): 93 ± 110 nM

Compound: CNC(=O)c1cc(Oc2ccc(NC(=O)Nc3ccc(Cl)c(C(F)(F)F)c3)c(F)c2)cc[n+]1[O-] [M-2]
- IC50 (murine CSF1R; [1]): 66 ± 17 nM
- IC50 (murine CSF1R; [2]): 18 ± 7 nM
- IC50 (ERK1/2): 239 ± 239 nM
- IC50 (AKT): 63 ± 37 nM

Compound: NC(=O)c1cc(Oc2ccc(NC(=O)Nc3ccc(Cl)c(C(F)(F)F)c3)c(F)c2)ccn1 [M-4]
- IC50 (murine CSF1R; [1]): 273 ± 101 nM
- IC50 (murine CSF1R; [2]): 185 ± 29 nM
- signal of total CSF1R (murine CSF1R): destabilized
- IC50 (ERK1/2): 783 ± 34 nM
- IC50 (AKT): 276 ± 30 nM
- IC50 (VEGFR2): 37 nM
- unbound fraction (Binding to mouse plasma): 0.332%
